# In US20080070971A1, “Medical Use of Bilirubin and its Structural Analogues” (priority 2006, published 2008):
# Columns and labels:
# [1] = Minimal erythema dose (MED) on skin exposed to solar radiation; assay type: in vivo, human
# From the text: Healthy volunteers were exposed to solar radiation for evaluation of minimal erythema dose (MED)—a direct sign of acute inflammation, without and with pretreatment of bilirubin (dissolved in dimethyl sulfoxide).
# Human carcinoma cells = assay: Cancer cell growth by cell counting; assay type: cell-based; conditions: concentrations above 10 mg/L (FIG. 10)
# Procedure: Cell growth. Human carcinoma cells were cultured continuously in a medium containing ferrous sulfate, kept in a humidified incubator at 37° C. Cancer cells were seeded in triplicate at a density of 10,000 cells/3.5-cm culture dish overnight before being subjected to treatments. Growth was estimated by counting cells in a hemocytometer after staining cells with trypan blue. Cell yields from cultures maintained in seeding medium served as growth controls for computing the relative cell growth.
# [2] = target: T1, cholesterol esterase (CHE) (Homo sapiens, UniProt P19835); assay: Cholesterol esterase inhibition; assay type: biochemical; conditions: bilirubin concentration of about 10 mg/L; pH=7.2 (FIG. 1)
# T1 sequence (P19835 21-753): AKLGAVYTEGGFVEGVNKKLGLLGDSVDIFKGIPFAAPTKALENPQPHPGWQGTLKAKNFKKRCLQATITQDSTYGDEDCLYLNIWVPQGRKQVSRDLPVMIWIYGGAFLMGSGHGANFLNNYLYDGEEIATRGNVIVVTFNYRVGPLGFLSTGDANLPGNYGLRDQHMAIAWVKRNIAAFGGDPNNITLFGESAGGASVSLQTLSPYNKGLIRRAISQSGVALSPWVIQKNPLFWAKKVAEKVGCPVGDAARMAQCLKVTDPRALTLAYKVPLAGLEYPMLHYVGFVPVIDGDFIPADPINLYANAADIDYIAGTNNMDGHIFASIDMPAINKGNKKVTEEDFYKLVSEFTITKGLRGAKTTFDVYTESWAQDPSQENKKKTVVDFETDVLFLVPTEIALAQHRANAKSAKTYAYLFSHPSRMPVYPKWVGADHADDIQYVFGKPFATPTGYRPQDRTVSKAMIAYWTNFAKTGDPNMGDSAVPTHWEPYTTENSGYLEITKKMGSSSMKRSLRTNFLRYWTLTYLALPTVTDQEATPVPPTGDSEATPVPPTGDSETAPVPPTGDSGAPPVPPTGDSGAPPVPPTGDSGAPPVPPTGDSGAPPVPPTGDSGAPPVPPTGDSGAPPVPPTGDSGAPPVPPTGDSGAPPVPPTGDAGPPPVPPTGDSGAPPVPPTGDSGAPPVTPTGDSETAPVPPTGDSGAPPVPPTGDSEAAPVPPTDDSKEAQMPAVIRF
# HMG-CoA reductase = target: T2, HMG-CoA reductase (Homo sapiens, UniProt P04035); assay: HMG-CoA reductase assay in liver microsomes; assay type: biochemical; conditions: 10 mg/L (FIG. 5)
# T2 construct: from tissue; host or cells: liver microsomes
# T2 sequence (P04035 1-888): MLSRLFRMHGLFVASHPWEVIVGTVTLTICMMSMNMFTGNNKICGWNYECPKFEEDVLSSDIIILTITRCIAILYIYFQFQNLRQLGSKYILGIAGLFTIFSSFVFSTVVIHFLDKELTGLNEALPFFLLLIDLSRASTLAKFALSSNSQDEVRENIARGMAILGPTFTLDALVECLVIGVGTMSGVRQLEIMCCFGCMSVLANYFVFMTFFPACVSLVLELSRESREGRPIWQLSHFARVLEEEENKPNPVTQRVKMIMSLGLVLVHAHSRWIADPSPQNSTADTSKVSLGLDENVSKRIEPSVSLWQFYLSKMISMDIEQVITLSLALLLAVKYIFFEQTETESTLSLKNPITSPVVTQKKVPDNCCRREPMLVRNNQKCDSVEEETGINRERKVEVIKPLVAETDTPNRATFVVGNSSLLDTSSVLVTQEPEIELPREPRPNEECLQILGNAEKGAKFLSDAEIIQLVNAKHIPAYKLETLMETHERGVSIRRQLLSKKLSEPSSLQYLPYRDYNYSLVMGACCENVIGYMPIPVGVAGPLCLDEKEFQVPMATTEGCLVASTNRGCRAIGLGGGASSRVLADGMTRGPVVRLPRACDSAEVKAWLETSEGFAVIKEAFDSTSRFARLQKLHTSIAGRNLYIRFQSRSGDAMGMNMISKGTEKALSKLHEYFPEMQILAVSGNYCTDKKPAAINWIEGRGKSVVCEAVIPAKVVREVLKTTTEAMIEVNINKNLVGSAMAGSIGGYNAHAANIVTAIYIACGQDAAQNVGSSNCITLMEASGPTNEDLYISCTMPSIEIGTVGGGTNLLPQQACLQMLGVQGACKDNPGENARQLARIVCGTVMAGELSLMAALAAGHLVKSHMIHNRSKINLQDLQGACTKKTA
# Procedure: Liver microsomes, which are used to investigate cholesterol metabolism, were prepared as follows. Liver was homogenized in 50 mM Tris HCl buffer (pH 7.4), containing 0.3 M sucrose, 10 mM DTT, and 10 mM EDTA. The homogenate was centrifuged at 20,000×g for 15 min, and the supernatant was centrifuged at 100,000×g for 60 min. The resulting microsomal fraction was suspended in 3 ml of 0.1 M potassium phosphate buffer (pH 7.4), containing 1 mM EDTA and 5 mM DTT. Aliquots were immediately frozen in liquid nitrogen and stored at −20° C. until analysis.
# Assay of HMG-CoA reductase. Microsomal suspensions of […], containing 5 mg protein, were preincubated for 5 min at 37° C. with […] of 0.1 M potassium phosphate buffer (pH 7.4), containing 1 mM EDTA and 12 mM glucose-6-phosphate. The assay was initiated by adding […] of cofactor-substrate solution (0.1 mM HMG-CoA, 3 mM MADPH, and 2 U/ml glucose-6-phosphate dehydrogenase). The incubation was performed at 37+ C. for 30 min and was terminated by the addition of […] of 1 M MaOH. After lactonization, the mevalonolactone was separated by thin layer chromatography. The eluate, which contained mevalonolactone, was collected in a scintillation vial. The radioactivity was then counted in a Packard 3320 scintillation spectrometer.
# [3] = tested on: malate dehydrogenase (MDH); assay: Malate dehydrogenase inhibition; assay type: biochemical; conditions: concentration equivalent to the moderate level of serum bilirubin (FIG. 7)
smiles,measurement,setting,value
"C=CC1=C(C)C(=Cc2[nH]c(Cc3[nH]c(C=C4NC(=O)C(C)=C4C=C)c(C)c3CCC(=O)O)c(CCC(=O)O)c2C)NC1=O [bilirubin, 2,7,13,17-tetramethyl-1,19-dioxo-3,18-divinyl-1,10,19,22,23,24-hexahydro-21H-biline-8,12-dipropanoic acid]",skin inflammation after UV exposure,[1]; bilirubin treated skin areas,no sign of inflammation
same,minimal erythema dose (MED),[1]; topical pretreatment with bilirubin in DMSO (FIG. 8),increased
same,relative cell growth,Human carcinoma cells,largely suppressed
same,inhibition at 10 µg/mL,[2],~50%
same,reduction of HMG-CoA reductase activity,HMG-CoA reductase,≤ 60%
same,inhibition of malate dehydrogenase,[3],strongly suppressed
